# Assay results as given in publication PMC12069692, “Pharmacological inhibition of PLK1/PRC1 triggers mitotic catastrophe and sensitizes lung cancers to chemotherapy” (Cell Death & Disease, 2025).
# pKd: −log10 of the molar value.
# Target: T1, PLK1 (Homo sapiens, UniProt P53350)
# T1 construct: Recombinant PLK1 protein (Active Motif 81429) in SPR; Flag-PBD in Co-IP-MS
# Test: SPR (Biacore T200, immobilized PLK1); supported by T1rho NMR, CETSA, Co-IP-MS, in vitro kinase assay (IC50 […])
# Type: binding
# T1 sequence (P53350 2-603): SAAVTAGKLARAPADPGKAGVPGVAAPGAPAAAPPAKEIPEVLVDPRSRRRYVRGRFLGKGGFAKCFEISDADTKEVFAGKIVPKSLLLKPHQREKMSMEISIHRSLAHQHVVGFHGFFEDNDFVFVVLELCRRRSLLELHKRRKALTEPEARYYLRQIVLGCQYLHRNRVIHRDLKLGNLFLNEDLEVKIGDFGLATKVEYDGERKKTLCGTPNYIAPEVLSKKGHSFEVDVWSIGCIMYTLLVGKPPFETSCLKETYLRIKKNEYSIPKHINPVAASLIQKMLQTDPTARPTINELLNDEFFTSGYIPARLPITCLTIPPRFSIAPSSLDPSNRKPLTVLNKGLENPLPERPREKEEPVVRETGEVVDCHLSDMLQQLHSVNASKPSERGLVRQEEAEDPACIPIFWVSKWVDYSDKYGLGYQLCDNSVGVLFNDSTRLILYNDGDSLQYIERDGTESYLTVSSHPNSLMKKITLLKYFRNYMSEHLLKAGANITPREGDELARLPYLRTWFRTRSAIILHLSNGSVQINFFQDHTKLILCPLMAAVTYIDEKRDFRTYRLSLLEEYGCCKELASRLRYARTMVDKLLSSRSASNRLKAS
smiles,measurement,value
CN(C)CCN1C(=O)c2cccc3c(S(=O)(=O)NCc4ccc(C(F)(F)F)cc4)ccc(c23)C1=O [B4],pKd,~5.25
